{"source": "patent US11555212B2", "about": "“Process for the production of sulfated phenolic compounds using modified Escerichia coli” (CysBio ApS, priority 2016, dated 2023)", "experiment_in_all_cases": "Percent conversion of substrates by E. coli expressing a sulfotransferase", "format_in_all_cases": "cell-based", "key": {"[1]": {"target": "T1, SULT1A1 Canis lupus familiaris (Canis lupus familiaris, UniProt Q29476)", "T1 construct": "1, 3, 4, 5, and 6 were cloned amplified from liver tissue cDNA; expressed in transfected cells; host or cells: E. coli BL21(DE3)pLysS", "details": "E. coli BL21(DE3)pLysS expressing SULT1A1 Canis lupus familiaris; M9; pHCA 100 μM, resveratrol 95 μM or kaempferol 87 μM; overnight 37° C.", "procedure": "(§1) The concentration of p-courmaric acid (pHCA) and zosteric acid in the supernatant was quantified by high performance liquid chromatography (HPLC) and compared to chemical standards. HPLC was done on a Thermo setup using a HS-F5 column and mobile phases: 5 mM ammonium formate pH 4.0 (A) and acetonitrile (B) at 1.5 mL min-1, using a gradient elution starting at 5% B. From 0.5 min after injection to 7 min, the fraction of B increased linearly from 5% to 60%, and between 9.5 min and 9.6 the fraction of B decreased back to 5%, and remaining there until 12 min. pHCA and zosteric acid were quantified by measuring absorbance at 277 nm.\n(§2) Different sulfotransferases were examined for their substrate specificities against three substrates. We tested the sulfotransferases mentioned in example 1, as well as additional ones. The genes encoding these were cloned as described in example 1 using the primers shown in the table below from cDNA libraries of the respective organisms, except for the SULT1A1 from rat (Rattus norvegicus) codon-optimized for E. coli (described above). The resulting vectors were transformed into BL21(DE3)pLysS.\n(§3) The resulting strains were grown in M9 medium containing either 100 μM pHCA, 95 μM resveratrol or 87 μM kaempferol. The cultures were grown overnight at 37° C., 300 rpm. The following day the supernatants were isolated and examined by HPLC as described in example 1."}, "[2]": {"tested_on": "SULT1A1 Equus caballus", "details": "E. coli BL21(DE3)pLysS expressing SULT1A1 Equus caballus; M9; pHCA 100 μM, resveratrol 95 μM or kaempferol 87 μM; overnight 37° C.", "procedure": "as §1, §2, §3"}, "[3]": {"target": "T2, SULT1A1 human (Homo sapiens, UniProt P50225, V223M)", "T2 construct": "expressed in transfected cells; host or cells: E. coli BL21(DE3)pLysS", "T2 sequence (P50225 whole entry V223M)": "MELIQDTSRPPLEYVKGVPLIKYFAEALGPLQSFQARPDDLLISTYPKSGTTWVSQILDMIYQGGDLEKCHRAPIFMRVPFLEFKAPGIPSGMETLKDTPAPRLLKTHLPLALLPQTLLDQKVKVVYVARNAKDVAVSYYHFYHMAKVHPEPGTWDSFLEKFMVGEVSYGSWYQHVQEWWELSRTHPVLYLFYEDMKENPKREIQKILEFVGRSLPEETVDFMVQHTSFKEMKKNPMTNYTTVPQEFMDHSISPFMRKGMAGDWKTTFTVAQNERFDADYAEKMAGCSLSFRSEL", "details": "E. coli BL21(DE3)pLysS expressing SULT1A1 human; M9; pHCA 100 μM, resveratrol 95 μM or kaempferol 87 μM; overnight 37° C.", "procedure": "as §1, §2, §3"}, "[4]": {"tested_on": "SULT1C1 Gallus gallus domesticus", "details": "E. coli BL21(DE3)pLysS expressing SULT1C1 Gallus gallus domesticus; M9; pHCA 100 μM, resveratrol 95 μM or kaempferol 87 μM; overnight 37° C.", "procedure": "as §1, §2, §3"}, "[5]": {"target": "T3, SULT1A1 Rattus norvegicus (Rattus norvegicus, UniProt P17988)", "T3 construct": "1, 3, 4, 5, and 6 were cloned amplified from liver tissue cDNA; expressed in transfected cells", "T3 sequence (P17988 whole entry)": "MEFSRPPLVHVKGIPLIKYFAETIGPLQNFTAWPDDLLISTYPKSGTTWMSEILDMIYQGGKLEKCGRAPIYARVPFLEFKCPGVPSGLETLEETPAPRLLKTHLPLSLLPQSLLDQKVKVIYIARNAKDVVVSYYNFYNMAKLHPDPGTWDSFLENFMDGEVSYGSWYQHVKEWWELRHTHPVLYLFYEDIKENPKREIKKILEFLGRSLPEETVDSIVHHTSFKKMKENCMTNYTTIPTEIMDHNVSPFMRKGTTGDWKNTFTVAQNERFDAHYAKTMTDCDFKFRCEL", "details": "M9, pHCA 100 μM, resveratrol 95 μM or kaempferol 87 μM, overnight 37° C.", "procedure": "as §1, §2, §3"}, "[6]": {"tested_on": "SULT1A1 Sus scrofa domesticus", "details": "E. coli BL21(DE3)pLysS expressing SULT1A1 Sus scrofa domesticus; M9; pHCA 100 μM, resveratrol 95 μM or kaempferol 87 μM; overnight 37° C.", "procedure": "as §1, §2, §3"}, "[7]": {"tested_on": "SULT1E1 Gallus gallus domesticus", "details": "E. coli BL21(DE3)pLysS expressing SULT1E1 Gallus gallus domesticus; M9; pHCA 100 μM, resveratrol 95 μM or kaempferol 87 μM; overnight 37° C.", "procedure": "as §1, §2, §3"}}, "data": [{"smiles": "O=C(O)/C=C/c1ccc(O)cc1", "note": "[pHCA, p-coumaric acid]", "values": [{"measurement": "Percent conversion of the substrate", "setting": "[1]", "result": 34, "unit": "%"}, {"measurement": "Percent conversion of the substrate", "setting": "[2]", "result": 21, "unit": "%"}, {"measurement": "Percent conversion of the substrate", "setting": "[3]", "result": 39, "unit": "%"}, {"measurement": "Percent conversion of the substrate", "setting": "[4]", "result": 26, "unit": "%"}, {"measurement": "Percent conversion of the substrate", "setting": "[5]; E. coli BL21(DE3)pLysS expressing SULT1A1 Rattus norvegicus (Codon-optimized for E. coli)", "result": 73, "unit": "%"}, {"measurement": "Percent conversion of the substrate", "setting": "[5]; E. coli BL21(DE3)pLysS expressing SULT1A1 Rattus norvegicus", "result": 93, "unit": "%"}, {"measurement": "Percent conversion of the substrate", "setting": "[6]", "result": 8, "unit": "%"}, {"measurement": "Percent conversion of the substrate", "setting": "[7]", "result": 17, "unit": "%"}]}]}
